The record followed here is ChEMBL document CHEMBL4627324, “Design and synthesis of novel 2-arylbenzimidazoles as selective mutant isocitrate dehydrogenase 2 R140Q inhibitors” (Bioorg Med Chem Lett, 2020).

The term IC50 denotes the midpoint of a concentration-inhibition curve. High values mean a need for much substance, low ones inhibition by little substance.

Assay [1] addresses Isocitrate dehydrogenase [NADP] cytoplasmic (Homo sapiens, UniProt O75874). Kind of assay: Inhibition of wild type IDH1 (unknown origin).
Assay [2] has as its target Isocitrate dehydrogenase [NADP] cytoplasmic (Homo sapiens, UniProt O75874, R132C). Kind of assay: Inhibition of IDH1 R132C mutant (unknown origin).
Assay [3] has as its target Isocitrate dehydrogenase [NADP], mitochondrial (Homo sapiens, UniProt P48735, R140Q). The experiment in a line: Inhibition of IDH2 R140Q mutant (unknown origin).
Assay [4] concerns the target Isocitrate dehydrogenase [NADP] cytoplasmic (Homo sapiens, UniProt O75874, R132H). The experiment in a line: Inhibition of IDH1 R132H mutant (unknown origin).
Assay [5] deals with T1, Isocitrate dehydrogenase [NADP], mitochondrial (Homo sapiens, UniProt P48735).
T1 sequence (P48735 whole entry): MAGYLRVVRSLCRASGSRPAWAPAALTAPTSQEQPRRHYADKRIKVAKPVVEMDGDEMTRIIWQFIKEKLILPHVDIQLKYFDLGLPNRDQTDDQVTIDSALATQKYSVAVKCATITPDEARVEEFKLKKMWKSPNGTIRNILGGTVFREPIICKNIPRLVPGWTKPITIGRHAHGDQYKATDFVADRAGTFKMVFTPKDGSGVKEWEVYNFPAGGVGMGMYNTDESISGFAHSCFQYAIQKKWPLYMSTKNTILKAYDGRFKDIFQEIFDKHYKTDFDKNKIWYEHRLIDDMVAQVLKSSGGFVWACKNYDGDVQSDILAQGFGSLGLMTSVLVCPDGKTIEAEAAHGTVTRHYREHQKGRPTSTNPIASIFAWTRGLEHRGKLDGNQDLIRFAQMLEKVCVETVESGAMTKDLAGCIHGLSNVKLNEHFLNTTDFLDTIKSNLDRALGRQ
The experiment in a line: Inhibition of wild type IDH2 (unknown origin).

For assay [6], the target named is Isocitrate dehydrogenase [NADP], mitochondrial (Homo sapiens, UniProt P48735, R172K). Kind of assay: Inhibition of IDH2 R172K mutant (unknown origin).
Sequence of Isocitrate dehydrogenase [NADP], mitochondrial (Homo sapiens, UniProt P48735, R172K) (P48735 40-452 R172K limits assumed): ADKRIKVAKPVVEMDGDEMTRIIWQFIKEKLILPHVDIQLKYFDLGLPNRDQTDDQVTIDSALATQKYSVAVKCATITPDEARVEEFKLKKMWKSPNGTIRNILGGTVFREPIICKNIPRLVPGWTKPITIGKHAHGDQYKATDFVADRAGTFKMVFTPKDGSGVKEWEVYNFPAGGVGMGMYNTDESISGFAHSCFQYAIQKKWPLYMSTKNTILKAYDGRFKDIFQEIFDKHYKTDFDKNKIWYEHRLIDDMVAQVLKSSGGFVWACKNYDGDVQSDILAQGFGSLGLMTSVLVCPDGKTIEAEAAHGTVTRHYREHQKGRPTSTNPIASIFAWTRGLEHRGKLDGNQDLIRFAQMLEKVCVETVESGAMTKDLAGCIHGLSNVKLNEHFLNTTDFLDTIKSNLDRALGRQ

Values joined by “and” are separate entries in the source; they are usually repeats but may differ in a detail not shown here. Identical values can stand only once.

Sequence of Isocitrate dehydrogenase [NADP] cytoplasmic (Homo sapiens, UniProt O75874) (O75874 whole entry): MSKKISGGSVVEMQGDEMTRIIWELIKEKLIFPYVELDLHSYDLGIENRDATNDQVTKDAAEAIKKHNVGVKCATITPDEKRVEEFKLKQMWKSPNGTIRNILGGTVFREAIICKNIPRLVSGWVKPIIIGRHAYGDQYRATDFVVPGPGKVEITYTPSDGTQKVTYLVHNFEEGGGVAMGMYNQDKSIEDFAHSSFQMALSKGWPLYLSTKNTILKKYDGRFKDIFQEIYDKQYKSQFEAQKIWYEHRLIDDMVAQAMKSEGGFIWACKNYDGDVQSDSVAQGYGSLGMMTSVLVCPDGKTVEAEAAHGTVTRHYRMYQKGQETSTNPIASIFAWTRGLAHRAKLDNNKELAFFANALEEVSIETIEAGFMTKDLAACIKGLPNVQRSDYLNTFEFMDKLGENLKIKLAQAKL
Sequence of Isocitrate dehydrogenase [NADP] cytoplasmic (Homo sapiens, UniProt O75874, R132C) (O75874 2-414 R132C limits assumed): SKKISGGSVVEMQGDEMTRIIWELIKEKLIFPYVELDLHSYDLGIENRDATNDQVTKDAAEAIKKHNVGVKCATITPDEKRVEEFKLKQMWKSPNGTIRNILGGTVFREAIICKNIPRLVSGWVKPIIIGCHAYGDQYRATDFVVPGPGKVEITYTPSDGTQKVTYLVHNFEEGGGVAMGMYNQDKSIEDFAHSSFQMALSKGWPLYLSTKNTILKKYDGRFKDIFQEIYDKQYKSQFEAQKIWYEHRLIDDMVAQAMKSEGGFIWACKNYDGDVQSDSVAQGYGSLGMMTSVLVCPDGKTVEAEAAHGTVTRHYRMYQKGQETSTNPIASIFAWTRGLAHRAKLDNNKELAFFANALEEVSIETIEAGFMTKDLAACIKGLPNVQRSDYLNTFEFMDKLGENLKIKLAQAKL
Sequence of Isocitrate dehydrogenase [NADP] cytoplasmic (Homo sapiens, UniProt O75874, R132H) (O75874 2-414 R132H limits assumed): as the sequence (O75874 2-414 R132C limits assumed) above, with C131H counted along it
Sequence of Isocitrate dehydrogenase [NADP], mitochondrial (Homo sapiens, UniProt P48735, R140Q) (P48735 40-452 R140Q limits assumed): as the sequence (P48735 40-452 R172K limits assumed) above, with R101Q, K133R counted along it

On to `Cc1cc(C)c2[nH]c(Nc3cc(S(=O)(=O)NC4CC4)ccc3-c3ccsc3)nc2c1`, for which the IC50 in assay [1] is above 100 µM; in assay [2] it was above 100 µM; in assay [3] it was 0.96 µM; in assay [4], above 100 µM; in assay [5] it was above 100 µM; in assay [6], 51.8 µM.
With `O=C(Nc1cccc(C(F)(F)F)c1)Nc1cc(S(=O)(=O)NC2CC2)ccc1-c1ccsc1`, the half-maximal inhibitory concentration (IC50) in assay [1], in assay [2] and in assay [4] was above 100 µM throughout.
Regarding `O=S(=O)(NC1CC1)c1ccc(-c2ccsc2)c(Nc2nc3cc(Br)ccc3[nH]2)c1`, the IC50 is above 100 µM in assay [1]; above 100 µM in assay [2]; 2.02 µM and 0.26 µM in assay [3]; above 100 µM in assay [4]; above 100 µM in assay [5]; above 100 µM in assay [6].
Turning to `O=S(=O)(NC1CC1)c1ccc(-c2ccsc2)c(Nc2nc3ccc(F)c(F)c3[nH]2)c1`, the IC50 in assay [3] worked out at 13.8 µM.
The same measure, in the same setting: next, `COc1ccc2nc(Nc3cc(S(=O)(=O)NC4CC4)ccc3-c3ccsc3)[nH]c2c1`: 46.9 µM; `CCOC(=O)c1ccc2nc(Nc3cc(S(=O)(=O)NC4CC4)ccc3-c3ccsc3)[nH]c2c1`: above 100 µM.
Regarding `O=S(=O)(NC1CC1)c1ccc(-c2ccsc2)c(Nc2nc3ccc(Br)c(Br)c3[nH]2)c1`, the IC50 was above 100 µM in assay [1]; above 100 µM in assay [2]; 0.65 µM in assay [3]; above 100 µM in assay [4]; above 100 µM in assay [5]; above 100 µM in assay [6].
For `O=S(=O)(NC1CC1)c1ccc(-c2ccsc2)c(Nc2nc3ccc(C(F)(F)F)cc3[nH]2)c1`, the IC50 in assay [3] was determined as 14.1 µM.
Same read-out and setting: next, `N#Cc1ccc2nc(Nc3cc(S(=O)(=O)NC4CC4)ccc3-c3ccsc3)[nH]c2c1`: 97.9 µM.
For `Cc1ccccc1C(C(=O)NC1CCCCC1)N(C(=O)Cn1ccnc1C)c1cccc(F)c1` (configuration not stated), the IC50 in assay [1] is above 100 µM; in assay [2] it was 0.39 µM; in assay [3], above 100 µM; in assay [4], 0.17 µM; in assay [5], above 100 µM; in assay [6] it was above 100 µM.
For `CC(C)(O)CNc1nc(Nc2ccnc(C(F)(F)F)c2)nc(-c2cccc(C(F)(F)F)n2)n1` [ENASIDENIB], the half-maximal inhibitory concentration (IC50) in assay [1] was above 100 µM; in assay [2], above 100 µM; in assay [3] it was 0.31 µM; in assay [4] it was above 100 µM; in assay [5], above 100 µM; in assay [6], 1.08 µM.
`O=S(=O)(NC1CC1)c1ccc(-c2ccsc2)c(Nc2nc3ccccc3[nH]2)c1`: half-maximal inhibition in assay [3] (IC50) was put at 5.41 µM.
Same read-out and setting: next, `O=S(=O)(NC1CC1)c1ccc(-c2ccsc2)c(Nc2nc3ccc(Cl)cc3[nH]2)c1`: 11.9 µM; `O=S(=O)(NC1CC1)c1ccc(-c2ccsc2)c(Nc2nc3ccc(C(F)(F)F)c(Cl)c3[nH]2)c1`: 4.34 µM.
On the same count and under the same terms, to `O=S(=O)(NC1CC1)c1ccc(-c2ccsc2)c(Nc2nc3cc(F)cc(F)c3[nH]2)c1` belongs 4.94 µM.
Same read-out and setting: to `O=S(=O)(NC1CC1)c1ccc(-c2ccsc2)c(Nc2nc3ccc(F)c(Cl)c3[nH]2)c1` belongs 10.3 µM; to `Cc1ccc2nc(Nc3cc(S(=O)(=O)NC4CC4)ccc3-c3ccsc3)[nH]c2c1C`, 1.61 µM; to `O=S(=O)(NC1CC1)c1ccc(-c2ccsc2)c(Nc2nc3ccc(Cl)c(Cl)c3[nH]2)c1`, 2.72 µM.
`O=S(=O)(NC1CC1)c1ccc(-c2ccsc2)c(Nc2nc3cc(F)ccc3[nH]2)c1`: the IC50 was above 100 µM in assay [1]; above 100 µM in assay [2]; 0.73 µM in assay [3]; above 100 µM in assay [4]; above 100 µM in assay [5]; 78.8 µM in assay [6].
Take `COC(=O)c1ccc2nc(Nc3cc(S(=O)(=O)NC4CC4)ccc3-c3ccsc3)[nH]c2c1`: in assay [3], the IC50 is above 100 µM.
